Assay results from patent US20120108501A1, “Protease Inhibitors” (priority 2009, published 2012).

Assay: Pharmacokinetics of released PEGylated protease inhibitor following P.O. administration of prodrugs in rats
Type: in vivo, male Sprague-Dawley rats
Parameters: AUCall Mean: concentration or dose not given beside the values; C24 Mean: unit not given here
Details: rats (n = 4-5); for C24 Mean: concentration at 24 hours
Description: Pharmacokinetic analysis of protease inhibitors described herein was conducted. To evaluate the pharmacokinetics of PEGylated protease inhibitor conjugates with releasable lipophilic attachments, test compounds were administered to male Sprague-Dawley rats.
At various times following test article administration, serial blood samples were collected from indwelling jugular vein catheters and transferred to micro-tubes containing 7.5 μL of 20% w/v K2EDTA as an anticoagulant. Following processing of the blood samples to plasma (10 minutes at 10000 rpm, Centrifuge Model: Kubota 3500), plasma concentrations of the test article or corresponding PEGylated molecule released from the test article was measured using LC-MS/MS methods. Pharmacokinetic parameters were estimated using noncompartmental methods.

[1] = mPEG6-atazanavir in plasma after PO administration of mPEG6-ATV or of the listed prodrug
[2] = mPEG5-atazanavir in plasma after PO administration of mPEG5-ATV or of the listed prodrug
[3] = mPEG3-atazanavir in plasma after PO administration of mPEG3-ATV or of the listed prodrug

Row | SMILES | AUCall Mean [1] [ng·h/mL] | Cmax Mean [1] [ng/mL] | MRT last Mean [1] [h] | Tmax Median [1] [h] | further results
1 | COCCOCCOCCOCCOCCOCCOC(=O)NC(C(=O)NC(Cc1ccccc1)C(CN(Cc1ccc(-c2ccccn2)cc1)NC(=O)C(NC(=O)OC)C(C)(C)C)OC(=O)C(CC(C)C)NC(=O)C(N)CC(C)C)C(C)(C)C.Cl (stereo not drawn) [Leu-Leu-mPEG6-ATV, Leu-Leu-mPEG6-Atazanavir Hydrochloride] | 152 | 14.2 | 13.1 | 1.50 | 
2 | COCCOCCOCCOCCOCCOCCOC(=O)N[C@H](C(=O)N[C@@H](Cc1ccccc1)[C@H](CN(Cc1ccc(-c2ccccn2)cc1)NC(=O)[C@@H](NC(=O)OC)C(C)(C)C)OC(=O)[C@H](Cc1ccccc1)NC(=O)[C@@H](N)CC(C)C)C(C)(C)C.Cl [Leu-Phe-mPEG6-ATV, Leu-Phe-mPEG6-Atazanavir Hydrochloride] | 418 | 37.2 | 13.8 | 1.50 | 
3 | CCOCO[C@@H](CN(Cc1ccc(-c2ccccn2)cc1)NC(=O)[C@@H](NC(=O)OC)C(C)(C)C)[C@H](Cc1ccccc1)NC(=O)[C@@H](NC(=O)OCCOCCOCCOCCOCCOC)C(C)(C)C [Methyl ethyl ether mPEG5-ATV, mPEG5-Atazanavir Methyl Ethyl Ether] |  |  |  |  | C24 Mean [2]: 2.7; AUCall Mean [2]: 489 ng·h/mL; Cmax Mean [2]: 95.1 ng/mL; MRT last Mean [2]: 6.19 h; Tmax Median [2]: 1.00 h
4 | CCOCOC(CN(Cc1ccc(-c2ccccn2)cc1)NC(=O)C(NC(=O)OC)C(C)(C)C)C(Cc1ccccc1)NC(=O)C(NC(=O)OCCOCCOCCOCCOCCOCCOC)C(C)(C)C (centres unmarked) [Methyl ethyl ether mPEG6-ATV, mPEG6-Atazanavir Methyl Ethyl Ether] | 202 | 38.3 | 10.1 | 2.00 | C24 Mean [1]: 0.00
5 | CCCCCCCCCCCCCCCCOCC(COP(=O)(O)OC(CN(Cc1ccc(-c2ccccn2)cc1)NC(=O)C(NC(=O)OC)C(C)(C)C)C(Cc1ccccc1)NC(=O)C(NC(=O)OCCOCCOCCOC)C(C)(C)C)OC (centres unmarked) [PEG3-Atazanavir Monophospholipid, mPEG3-atazanavir monophospholipid] |  |  |  |  | AUCall Mean [3]: 7.72 ng·h/mL; Cmax Mean [3]: 18.7 ng/mL; MRT last Mean [3]: 0.640 h; Tmax* Median [3]: 0.250 h
6 | COCCOCCOCCOCCOCCOC(=O)N[C@H](C(=O)N[C@@H](Cc1ccccc1)[C@@H](O)CN(Cc1ccc(-c2ccccn2)cc1)NC(=O)[C@@H](NC(=O)OC)C(C)(C)C)C(C)(C)C [PEG5-ATV, mPEG5-atazanavir] |  |  |  |  | AUCall Mean [2]: 389 ng·h/mL; Cmax Mean [2]: 57.6 ng/mL; MRT last Mean [2]: 9.61 h; Tmax Median [2]: 0.750 h
7 | COCCOCCOCCOCCOCCOCCOC(=O)N[C@H](C(=O)N[C@@H](Cc1ccccc1)[C@@H](O)CN(Cc1ccc(-c2ccccn2)cc1)NC(=O)[C@@H](NC(=O)OC)C(C)(C)C)C(C)(C)C [PEG6-ATV, mPEG6-atazanavir] | 97.6 | 26.8 | 4.93 | 0.250 | 
8 | COCCOCCOCCOCCOCCOC(=O)NC(C(=O)NC(Cc1ccccc1)C(CN(Cc1ccc(-c2ccccn2)cc1)NC(=O)C(NC(=O)OC)C(C)(C)C)OC(=O)CNC(=O)C(N)Cc1ccccc1)C(C)(C)C.Cl (stereo not drawn) [Phe-Gly-mPEG5-Atazanavir HCl, Phe-Gly-mPEG5-Atazanavir Hydrochloride] |  |  |  |  | C24 Mean [2]: 0.169; AUCall Mean [2]: 33.7 ng·h/mL; Cmax Mean [2]: 3.10 ng/mL; MRT last Mean [2]: 12.0 h; Tmax Median [2]: 12.0 h
9 | COCCOCCOCCOCCOCCOCCOC(=O)N[C@H](C(=O)N[C@@H](Cc1ccccc1)[C@H](CN(Cc1ccc(-c2ccccn2)cc1)NC(=O)[C@@H](NC(=O)OC)C(C)(C)C)OC(=O)CNC(=O)[C@@H](N)Cc1ccccc1)C(C)(C)C.Cl [Phe-Gly-mPEG6-ATV, Phe-Gly-mPEG6-Atazanavir Hydrochloride] | 217 | 8.86 | 26.1 | 24.0 | 
10 | COCCOCCOCCOCCOCCOCCOC(=O)NC(C(=O)NC(Cc1ccccc1)C(CN(Cc1ccc(-c2ccccn2)cc1)NC(=O)C(NC(=O)OC)C(C)(C)C)OC(=O)C(CC(C)C)NC(=O)C(N)Cc1ccccc1)C(C)(C)C.Cl (stereo not drawn) [Phe-Leu-mPEG6-ATV, Phe-Leu-mPEG6-Atazanavir Hydrochloride] | 216 | 27.4 | 11.0 | 1.50 | 
11 | COCCOCCOCCOCCOCCOCCOC(=O)N[C@H](C(=O)N[C@@H](Cc1ccccc1)[C@H](CN(Cc1ccc(-c2ccccn2)cc1)NC(=O)[C@@H](NC(=O)OC)C(C)(C)C)OC(=O)[C@H](Cc1ccccc1)NC(=O)[C@@H](N)Cc1ccccc1)C(C)(C)C.Cl [Phe-Phe-mPEG6-ATV, Phe-Phe-mPEG6-Atazanavir Hydrochloride] | 279 | 27.0 | 16.2 | 2.00 | 
12 | COCCOCCOCCOCCOCCOCCOC(=O)NC(C(=O)NC(Cc1ccccc1)C(CN(Cc1ccc(-c2ccccn2)cc1)NC(=O)C(NC(=O)OC)C(C)(C)C)OC(=O)CNC(=O)C(N)C(C)C)C(C)(C)C.Cl (stereo not drawn) [Val-Gly-mPEG6-ATV, Val-GIy-mPEG6-Atazanavir Hydrochloride] | 194 | 5.11 | 24.3 | 7.00 | 
13 | COCCOCCOCCOC(=O)N[C@H](C(=O)N[C@@H](Cc1ccccc1)[C@H](CN(Cc1ccc(-c2ccccn2)cc1)NC(=O)[C@@H](NC(=O)OC)C(C)(C)C)OCOCCOC)C(C)(C)C [mPEG3 ATV-Methyl ethyl methyl ether, mPEG3-Atazanavir Methyl Ethyl Methyl Ether] |  |  |  |  | AUCall Mean [3]: 4.10 ng·h/mL; Cmax Mean [3]: 0.951 ng/mL; MRT last Mean [3]: 1.93 h; Tmax* Median [3]: 2.00 h
14 | COCCOCCOCCOC(=O)NC(C(=O)NC(Cc1ccccc1)C(CN(Cc1ccc(-c2ccccn2)cc1)NC(=O)C(NC(=O)OC)C(C)(C)C)OC(=O)C(N)C(C)C)C(C)(C)C.Cl [mPEG3-ATV-L-valine, mPEG3-Atazanavir-L-valine HCl] |  |  |  |  | AUCall Mean [3]: 70.4 ng·h/mL; Cmax Mean [3]: 11.8 ng/mL; MRT last Mean [3]: 4.45 h; Tmax* Median [3]: 0.500 h
